Results on six compounds are retold here after PubChem BioAssay (NCI).

Among the test systems are COLO 205 colon; A549 NSCLC; K-562 leukemia; HCT-15 colon; MDA-MB-231 breast; NCI/ADR-RES ovarian; BT-549 breast; HT29 colon; T-47D breast; DU-145 prostate; OVCAR-8 ovarian; MOLT-4 leukemia; 786-0 renal; NCI-H460 lung; SNB-75 CNS; UO-31 renal; SF-539 CNS; SK-OV-3 ovarian; KM12 colon.
Assay in all cases: growth of human tumour cells (NCI), 48 h

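1) Cells in 96-well plates. 2) Compound, 48 h, 5 concentrations. 3) Linear interpolation between surrounding doses. 4) Unreached endpoint = highest concentration. The concentration for full growth arrest is given as TGI.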 Some results are limits rather than exact numbers.

Consider `CC(=O)OC12c3ccccc3C(c3ccccc31)C1C(=O)N(Nc3ccccc3)C(=O)C12` (centres undefined), for which the TGI in the assay on COLO 205 colon, in the assay with A549 NSCLC, with K-562 leukemia, with HCT-15 colon, in the assay with MDA-MB-231 breast and in the assay with NCI/ADR-RES ovarian was above 100 µM in each case. For the same compound, the TGI in the assay with BT-549 breast, with HT29 colon, with T-47D breast, with DU-145 prostate, with OVCAR-8 ovarian and with MOLT-4 leukemia was above 100 µM each time. Besides, the TGI in the assay on 786-0 renal, in the assay with NCI-H460 lung, in the assay with SNB-75 CNS, in the assay with UO-31 renal, in the assay with SF-539 CNS and with SK-OV-3 ovarian was above 100 µM throughout. The TGI in the assay with KM12 colon is above 100 µM.

As for `Cc1ccc2[nH]c3c(C)c4cc[n+](C)cc4c(C)c3c2c1`, the TGI is 5.05 µM with COLO 205 colon; 4.28 µM in the assay on A549 NSCLC; 63.4 µM with K-562 leukemia; above 82.6 µM in the assay on HCT-15 colon; above 44.7 µM with MDA-MB-231 breast; above 100 µM in the assay with NCI/ADR-RES ovarian. Further, the TGI is 3.05 µM with BT-549 breast; 41.6 µM in the assay with HT29 colon; 6.83 µM with T-47D breast; 33.5 µM in the assay on DU-145 prostate; 8.97 µM in the assay on OVCAR-8 ovarian; 54.9 µM in the assay with MOLT-4 leukemia. Further, the TGI in the assay on 786-0 renal came to 2.75 µM; in the assay on NCI-H460 lung, 40.7 µM; with SNB-75 CNS, 0.761 µM; in the assay on UO-31 renal, 60.2 µM; with SF-539 CNS it was 2.73 µM; in the assay on SK-OV-3 ovarian, 50.2 µM. Besides, in the assay on KM12 colon, the TGI is 6.89 µM.

Take `C/C(CC(O)(C(F)(F)Cl)C(F)(F)Cl)=N\Nc1ccccc1`: the TGI in the assay on COLO 205 colon, in the assay on A549 NSCLC, with K-562 leukemia, in the assay on HCT-15 colon, in the assay with MDA-MB-231 breast and in the assay on NCI/ADR-RES ovarian was above 100 µM throughout. Besides, the TGI is above 100 µM in the assay on BT-549 breast; above 100 µM in the assay with HT29 colon; above 100 µM in the assay with T-47D breast; above 100 µM in the assay with DU-145 prostate; above 100 µM in the assay with OVCAR-8 ovarian; 84.2 µM in the assay with MOLT-4 leukemia. In addition, the TGI is above 100 µM with 786-0 renal; above 100 µM in the assay on NCI-H460 lung; 78.9 µM with SNB-75 CNS; above 100 µM in the assay with UO-31 renal; above 100 µM in the assay with SF-539 CNS; above 100 µM in the assay with SK-OV-3 ovarian. The TGI in the assay on KM12 colon is above 100 µM.

Consider `C/C(=N/NC(=S)Nc1ccccc1C)c1ccccn1`, for which the TGI was found to be 2.56 µM with COLO 205 colon; 18.5 µM with A549 NSCLC; 3.4 µM in the assay on K-562 leukemia; 18.3 µM with HCT-15 colon; 14.9 µM with MDA-MB-231 breast; 8.62 µM in the assay on NCI/ADR-RES ovarian. The TGI in the assay with BT-549 breast worked out at 16 µM; in the assay on HT29 colon, 31.8 µM; with T-47D breast it was 3.49 µM; in the assay on DU-145 prostate, 11.3 µM; in the assay with OVCAR-8 ovarian, 9.32 µM; in the assay on MOLT-4 leukemia, 2.08 µM. For the same compound, the TGI is 18 µM in the assay with 786-0 renal; 7.61 µM with NCI-H460 lung; 16.3 µM with SNB-75 CNS; 15.6 µM with UO-31 renal; 8.15 µM in the assay on SF-539 CNS; 14.8 µM in the assay on SK-OV-3 ovarian. In the assay with KM12 colon, this compound yielded a TGI of 17.4 µM.

On to `COc1ccccc1NC(=S)NNC(=O)c1cc(-c2ccccc2)nc2ccccc12`, for which the TGI with COLO 205 colon is 45.8 µM; in the assay with A549 NSCLC it was 35 µM; with K-562 leukemia, above 100 µM; in the assay with HCT-15 colon, 20.2 µM; with MDA-MB-231 breast it was 63.7 µM; in the assay on NCI/ADR-RES ovarian, 63.5 µM. The TGI is 63.8 µM in the assay with BT-549 breast; 71.3 µM in the assay with HT29 colon; 63 µM in the assay on T-47D breast; 32 µM in the assay with DU-145 prostate; 49 µM in the assay on OVCAR-8 ovarian; 26.5 µM with MOLT-4 leukemia. In addition, the TGI in the assay with 786-0 renal worked out at 32.8 µM; in the assay on NCI-H460 lung it was 98 µM; with SNB-75 CNS, 85 µM; in the assay with UO-31 renal, 24.6 µM; with SF-539 CNS, 28.1 µM; in the assay with SK-OV-3 ovarian, 42.1 µM. For the same compound, the TGI with KM12 colon stood at 46.5 µM.

In the case of `c1ccc(C2C3=C(c4ccccc4CC3)N3c4cc5nc6ccccc6nc5cc4NC34CCCCC24)cc1` (centres undefined), the TGI in the assay with COLO 205 colon, in the assay with A549 NSCLC, with K-562 leukemia, in the assay with HCT-15 colon, with MDA-MB-231 breast and with NCI/ADR-RES ovarian was above 10 µM in each case. For the same compound, the TGI in the assay on BT-549 breast is above 10 µM; with HT29 colon, above 10 µM; in the assay with T-47D breast it was above 10 µM; in the assay on DU-145 prostate, above 10 µM; in the assay on OVCAR-8 ovarian it was above 10 µM; with MOLT-4 leukemia it was above 8.19 µM. In addition, the TGI with 786-0 renal, with NCI-H460 lung, in the assay with SNB-75 CNS, with UO-31 renal, in the assay with SF-539 CNS and with SK-OV-3 ovarian was above 10 µM each time. In the assay on KM12 colon, this compound registered a TGI above 10 µM.
